# pIC50: −log10 of the molar value. Read-outs that look alike come from different tables or passages of the source.
# Tested on: cell lines from the Cancer Cell Line Encyclopedia (CCLE)
# Experiment: High-throughput cell viability assay, CCLE cell line panel (n = 356)
# Assay type: cell-based, human
# Details: Homo sapiens
# Experimental: Cell lines were partitioned into sensitive and insensitive groups based on compound potency (IC50). […] All other cell lines were obtained from ATCC (American Type Culture Collection), DSMZ (Deutsche Sammlung von Mikroorganismen und Zellkulturen), and HSRRB (Health Science Research Resources Bank) and cultured in RPMI or Dulbecco's modified Eagle's medium plus 10% FBS (Invitrogen, Carlsbad, CA) at 37°C, 5% CO2.
smiles,measurement,setting,value
COc1cc2c(cc1OC(C)C)[C@H](c1ccc(Cl)cc1)N(c1ccc(N(C)C[C@H]3CC[C@H](N4CCNC(=O)C4)CC3)cc1)C(=O)C2 [NVP-CFC218],IC50,"A 172, read-out: NVP- CFC218 IC50 (µM), cell line A172, central_nervous_system, TP53 WT",> 8 µM
same,pIC50,"A204, A-204, TP53 WT",5.66
same,pIC50,"A2780, A2780, TP53 WT",5.65
same,pIC50,"A-375, A-375, TP53 WT",5.58
same,pIC50,"ACHN, TP53 WT",5.69
same,pIC50,"AMO1, AMO-1, TP53 WT",5.70
same,pIC50,"AN3-CA, AN3 CA, TP53 MUT",< 5.10
same,pIC50,"ASPC1, AsPC-1, TP53 MUT",< 5.10
same,pIC50,"AU565, AU565, TP53 MUT",< 5.10
same,pIC50,"BCPAP, B-CPAP, TP53 MUT",< 5.10
same,pIC50,"BDCM, TP53 WT",6.15
same,pIC50,"BEN, TP53 MUT",< 5.10
same,pIC50,"BFTC-905, BFTC-905, TP53 MUT",< 5.10
same,pIC50,"BFTC-909, BFTC-909, TP53 MUT",< 5.10
same,pIC50,"BHY, TP53 MUT",< 5.10
same,pIC50,"BICR 6, TP53 MUT",< 5.10
same,pIC50,"BL-41, BL-41, TP53 MUT",< 5.10
same,pIC50,"BL-70, TP53 MUT",< 5.10
same,pIC50,"BT-20, BT-20, TP53 MUT",< 5.10
same,pIC50,"BT-474, BT-474, TP53 MUT",< 5.10
same,pIC50,"BT-549, BT-549, TP53 MUT",< 5.10
same,pIC50,"BXPC-3, BxPC-3, TP53 MUT",< 5.10
same,pIC50,"CAKI-2, Caki-2, TP53 WT",5.44
same,pIC50,"CAL-12T, TP53 MUT",< 5.10
same,pIC50,"CAL-78, TP53 MUT",< 5.10
same,IC50,"CAL-85-1, read-out: NVP- CFC218 IC50 (µM), cell line CAL-85-1, breast, TP53 MUT",> 8 µM
same,IC50,"CAMA-1, read-out: NVP- CFC218 IC50 (µM), cell line CAMA-1, breast, TP53 MUT",> 8 µM
same,pIC50,"CAPAN-1, Capan-1, TP53 MUT",< 5.10
same,pIC50,"CAS-1, TP53 MUT",< 5.10
same,pIC50,"CFPAC-1, CFPAC-1, TP53 MUT",< 5.10
same,pIC50,"CHL-1, CHL-1, TP53 MUT",< 5.10
same,pIC50,"CHP-212, CHP-212, TP53 WT",5.87
same,pIC50,"CMK-11-5, CMK-11-5, TP53 MUT",< 5.10
same,pIC50,"COLO 205, COLO 205, TP53 MUT",< 5.10
same,pIC50,"COLO 792, TP53 WT",< 5.10
same,pIC50,"COLO-679, COLO-679, TP53 WT",6.04
same,pIC50,"COLO-741, COLO 741, TP53 MUT",< 5.10
same,pIC50,"COR-L23, COR-L23, TP53 WT",< 5.10
same,pIC50,"COV318, COV318, TP53 MUT",< 5.10
same,pIC50,"COV362, COV362, TP53 MUT",< 5.10
same,pIC50,"COV434, COV434, TP53 WT",5.23
same,IC50,"COV504, read-out: NVP- CFC218 IC50 (µM), cell line COV504, ovary, TP53 MUT",> 8 µM
same,pIC50,"COV644, TP53 WT",< 5.10
same,pIC50,"Calu-3, Calu-3, TP53 MUT",< 5.10
same,pIC50,"Calu-6, Calu-6, TP53 MUT",< 5.10
same,pIC50,"Caov-3, Caov-3, TP53 MUT",< 5.10
same,IC50,"Capan-2, read-out: NVP- CFC218 IC50 (µM), cell line Capan-2, pancreas, TP53 WT",> 8 µM
same,pIC50,"ChaGo-K-1, ChaGo-K-1, TP53 MUT",< 5.10
same,pIC50,"DB, TP53 MUT",< 5.10
same,pIC50,"DBTRG-05MG, TP53 WT",5.40
same,pIC50,"DEL, TP53 MUT",< 5.10
same,pIC50,"DK-MG, TP53 WT",5.63
same,pIC50,"DMS-53, DMS 53, TP53 MUT",< 5.10
same,pIC50,"DMS-114, DMS 114, TP53 MUT",< 5.10
same,pIC50,"DOHH-2, DOHH-2, TP53 WT",5.93
same,pIC50,"DU-145, DU 145, TP53 MUT",< 5.10
same,pIC50,"Daoy, TP53 MUT",< 5.10
same,pIC50,"Detroit 562, Detroit 562, TP53 MUT",< 5.10
same,pIC50,"EB2, TP53 MUT",< 5.10
same,pIC50,"EBC-1, EBC-1, TP53 MUT",< 5.10
same,pIC50,"EFE-184, EFE-184, TP53 MUT",< 5.10
same,pIC50,"EFM-19, EFM-19, TP53 MUT",< 5.10
same,pIC50,"EFO-21, EFO-21, TP53 MUT",< 5.10
same,pIC50,"EM-2, TP53 MUT",< 5.10
same,IC50,"ESS-1, read-out: NVP- CFC218 IC50 (µM), cell line ESS-1, endometrium, TP53 MUT",> 8 µM
same,pIC50,"FU-OV-1, TP53 MUT",< 5.10
same,pIC50,"FaDu, TP53 MUT",< 5.10
same,pIC50,"Fu97, FU97, TP53 MUT",< 5.10
same,pIC50,"G-361, G-361, TP53 WT",5.50
same,pIC50,"G-401, G-401, TP53 WT",5.80
same,pIC50,"G-402, G-402, TP53 WT",5.64
same,pIC50,"GCIY, TP53 MUT",< 5.10
same,pIC50,"GI-1, TP53 MUT",< 5.10
same,pIC50,"GMS-10, GMS-10, TP53 MUT",< 5.10
same,pIC50,"GP2d, TP53 WT",5.46
same,pIC50,"Granta-519, GRANTA-519, TP53 WT",5.47
same,pIC50,"H4, TP53 WT",5.55
same,pIC50,"HARA, TP53 MUT",< 5.10
same,pIC50,"HCC15, HCC-15, TP53 MUT",< 5.10
same,pIC50,"HCC70, HCC70, TP53 MUT",< 5.10
same,pIC50,"HCC78, HCC-78, TP53 MUT",< 5.10
same,pIC50,"HCC1500, HCC1500, TP53 WT",5.31
same,pIC50,"HCC1806, HCC1806, TP53 MUT",< 5.10
same,pIC50,"HCC1954, HCC1954, TP53 MUT",< 5.10
same,pIC50,"HCC4006, HCC4006, TP53 MUT",< 5.10

# — paper PMC4468608, “A distinct p53 target gene set predicts for response to the selective p53–HDM2 inhibitor NVP-CGM097” (eLife, 2015)
